In ChEMBL document CHEMBL5260832, “Hepatoprotective natural triterpenoids” (Eur J Med Chem, 2018):

Experiments:
[1] = Hepatotoxicity in D-GaIN induced Wistar rat assessed as change in GTP leakage level for 10 days relative to control; format: toxicity; conditions: in vivo, 240 h, time 10 day
[2] = Hepatotoxicity in D-GaIN induced Wistar rat assessed as change in induction of TAT level for 10 days relative to control; format: toxicity; set-up: concentration or dose not given beside the values; conditions: in vivo, 240 h, time 10 day
Mus musculus [3] = species: Mus musculus; assay: Hepatoprotective activity against D-galactosamine-induced liver injury mouse model assessed as […] leakage at 50 ug/ml; format: functional; conditions: dose 50 µg/ml
[4] = Hepatotoxicity in acetaminophen-induced Wistar rat assessed as reduction in liver damage by measuring histological score at 50 to 100 mg/kg (reference value: 4.83); format: toxicity, organism-based; conditions: in vivo, dose 50-100 mg/kg
HepG2 = assay: Cytoprotective activity against t-BHP induced cell death in human HepG2 cells assessed as cell survival rate at 10 uM relative to control; format: functional
Hepatocyte [5] = assay: Hepatoprotective activity against D-GaIN/TNFalpha-induced cell death in mouse hepatocytes at 50 uM assessed as inhibition of cell death relative to control; format: functional; set-up: scale not given: the % may be the effect or the level left
[6] = Cytotoxicity against human HepG2 cells assessed as reduction in cell viability by SRB assay; format: toxicity, cell-based
Hepatocyte [7] = assay: Hepatoprotective activity against D-GaIN/TNFalpha-induced cell death in mouse hepatocyte at 100 uM; format: functional, cell-based
Hepatocyte [8] = assay: Hepatoprotective activity against D-GaIN/TNFalpha-induced cell death in mouse hepatocyte at 100 uM relative to control; format: functional, cell-based; conditions: Mus musculus, Hepatocyte
Hepatocyte [9] = assay: Hepatoprotective activity against D-GaIN-induced toxicity in mouse hepatocyte relative to control; format: functional, cell-based
Hepatocyte [10] = assay: Hepatoprotective activity against D-GaIN/TNFalpha -induced cell death in mouse hepatocyte assessed as inhibition at 50 uM relative to control; format: functional; set-up: scale not given: the % may be the effect or the level left
Hepatocyte [11] = assay: Protection against CCL4-induced rat hepatocyte toxicity assessed as reduction in ALT level at 90 uM relative to control; format: functional; set-up: scale not given: the % may be the effect or the level left
Huh-7 = assay: Protection against CCl4-induced cell damage in human Huh-7 cells assessed as reduction in ALT level at […] (reference value: 40.2 U/ml); format: functional; set-up: dose or concentration left out as unconfirmed
[12] = Hepatotoxicity in DMF-induced ICR mouse model assessed as change in SOD level, po measured after 7 days; format: toxicity, organism-based; conditions: in vivo, 168 h, time 7 day
[13] = Hepatotoxicity in DMF-induced ICR mouse model assessed as change in GSH-PX level, po measured after 7 days; format: toxicity, organism-based; conditions: in vivo, 168 h, time 7 day
[14] = Hepatotoxicity in DMF-induced ICR mouse model assessed as change in CAT level, po measured after 7 days; format: toxicity, organism-based; conditions: in vivo, 168 h, time 7 day
[15] = Hepatotoxicity in CCl4-induced ICR mouse model assessed as change in SOD level, po measured after 7 days; format: toxicity, organism-based; conditions: in vivo, 168 h, time 7 day
[16] = Hepatotoxicity in CCl4-induced ICR mouse model assessed as change in GSH-PX level, po measured after 7 days; format: toxicity, organism-based; conditions: in vivo, 168 h, time 7 day
[17] = Hepatotoxicity in CCl4-induced ICR mouse model assessed as change in CAT level, po measured after 7 days; format: toxicity, organism-based; conditions: in vivo, 168 h, time 7 day
Mus musculus [18] = species: Mus musculus; assay: Protection against D-GaIN/TNFalpha induced cell death in mouse liver parenchymal cells assessed as reduction in GPT level measured after 2 hrs; format: functional, cell-based
Mus musculus [19] = species: Mus musculus; assay: Hepatoprotective activity in mouse liver homogenate assessed as inhibition of iron/ascorbate lipid peroxidation at 5.0 mg/mL relative to control; format: functional; set-up: scale not given: the % may be the effect or the level left
Mus musculus [20] = species: Mus musculus; assay: Hepatoprotective activity in mouse liver homogenate assessed as inhibition of iron/ascorbate lipid peroxidation at 0.1 mg/mL relative to control; format: functional; set-up: scale not given: the % may be the effect or the level left
Mus musculus [21] = species: Mus musculus; assay: Hepatoprotective activity in CCl4-induced mouse assessed as change in SGPT level (reference value: 6.9 mmol/L); format: functional

In the case of CC1(C)CC[C@]2(C)CC[C@]3(C)C(=CC[C@@H]4[C@@]5(C)CC[C@@H](O)C(C)(C)[C@@H]5CC[C@]43C)[C@@H]2C1, the Activity [1] is reported as 5.3%, the Activity [2] is reported as 70.2% and the Activity (Mus musculus [3]) is reported as 60.8%.

In the case of CC1(C)CC[C@]2(C)CC[C@]3(C)C(=CC[C@@H]4[C@@]5(C)CC[C@H](O)C(C)(C)[C@@H]5CC[C@]43C)[C@@H]2C1 [beta-AMYRIN], the Activity [1] is reported as 49.4%, the Activity [4] is reported as 2.17 and the Activity [2] is reported as 40%. The Activity (Mus musculus [3]) was 17.3%.

Molecule COc1cc([C@H]2Oc3cc([C@H]4Oc5cc(O)cc(O)c5C(=O)[C@@H]4O)ccc3O[C@@H]2CO)ccc1O [SILYBIN A] has an Activity (HepG2) of 52.5%, an Activity (Hepatocyte [5]) of 61.2% and an EC50 [6] of 75.7 µM. The IC50 (Hepatocyte [7]) was 33.6 µM, the IC50 (Hepatocyte [8]) was 29.9 µM and the IC50 (Hepatocyte [9]) was 38.8 µM. It also gave an Activity (Hepatocyte [10]) of 61.2%.

C[C@@H]1O[C@@H](O[C@H]2[C@H](O[C@H]3CC[C@]4(C)[C@H]5CC=C6[C@@H]7CC(C)(C)CC[C@]7(C(=O)O[C@@H]7O[C@H](CO)[C@@H](O)[C@H](O)[C@H]7O[C@@H]7O[C@H](CO)[C@@H](O)[C@H](O)[C@H]7O)[C@H](O)C[C@@]6(C)[C@]5(C)CC[C@H]4C3(C)C)O[C@H](CO)[C@@H](O)[C@@H]2O)[C@H](O)[C@H](O)[C@H]1O gave an Activity (Hepatocyte [11]) of 79%.

In the case of C[C@@H]1CC[C@]2(C(=O)O[C@@H]3O[C@H](CO)[C@@H](O)[C@H](O)[C@H]3O)CC[C@]3(C)C(=CC[C@@H]4[C@@]5(C)C[C@H](O)[C@H](O)C(C)(C)[C@@H]5CC[C@]43C)[C@@H]2[C@]1(C)O, the Activity (Huh-7) is reported as 15.4 U/ml.

With C[C@@H]1O[C@@H](O[C@H]2[C@H](O[C@H]3CC[C@]4(C)[C@H]5CC=C6[C@@H]7CC(C)(C)CC[C@]7(C(=O)O[C@@H]7O[C@H](CO)[C@@H](O[C@@H]8O[C@H](CO)[C@@H](O)[C@H](O)[C@H]8O)[C@H](O)[C@H]7O[C@@H]7O[C@H](CO)[C@@H](O)[C@H](O)[C@H]7O)[C@H](O)C[C@@]6(C)[C@]5(C)CC[C@H]4C3(C)C)O[C@H](CO)[C@@H](O)[C@@H]2O)[C@H](O)[C@H](O)[C@H]1O the Activity (Hepatocyte [11]) was 4%.

C[C@@H]1O[C@@H](O[C@H]2[C@H](OC(=O)[C@]34CCC(C)(C)C[C@H]3C3=CC[C@@H]5[C@@]6(C(=O)O)CC[C@H](O)[C@@](C)(C(=O)O)[C@@H]6CC[C@@]5(C)[C@]3(C)CC4)O[C@H](C)[C@H](O)[C@@H]2O)[C@H](O)[C@H](O)[C@H]1O[C@@H]1O[C@H](CO)[C@@H](O[C@@H]2OC[C@@H](O)[C@H](O)[C@H]2O)[C@H](O)[C@H]1O gave an Activity [12] of 196.16 U/mg, an Activity [13] of 59.57 U/mg and an Activity [14] of 81.85 U/mg. The Activity [15] was 193.68 U/mg, the Activity [16] was 67.77 U/mg and the Activity [17] was 85.63 U/mg.

For CC(=O)OC[C@H]1O[C@@H](O[C@H]2C[C@]3(C)[C@H](C[C@@H](O)[C@@H]4[C@@H]([C@]5(C)CC[C@@H](C(C)(C)O)O5)CC[C@]43C)[C@@]3(C)CC[C@H](O)C(C)(C)[C@H]23)[C@H](O[C@@H]2O[C@@H](C)[C@H](O)[C@@H](O)[C@H]2O)[C@@H](O)[C@@H]1O, the IC50 (Mus musculus [18]) was 47 µM.

With CC1(C)CC[C@]2(C(=O)O)CC[C@]3(C)C(=CC[C@@H]4[C@@]5(C)CC[C@H](O)C(C)(C)[C@@H]5CC[C@]43C)[C@@H]2C1 [OLEANOLIC_ACID] the Activity (Mus musculus [19]) was 38.8%, the Activity (Mus musculus [20]) was 13.7% and the Activity (Mus musculus [21]) was 3.64 mmol/L.
